Two compounds from publication PMC7985297 (Communications Biology, 2021) can be followed below.

As usually defined, the pIC50 is the IC50 on a negative log10 scale, so that one unit is a factor of ten.

In assay [1] the test system is LN95 cells. The assay is described as follows: Senescence-associated β-galactosidase staining, LN95. The following applies: 3 days.
Protocol: β-galactosidase activity at suboptimal pH (6.0) was used as a marker to detect cellular senescence[42]. Cells were seeded in four-well chamber slides at a density of 8000-10,000 cells. […] Three days later, the media was removed and cells were fixed with 2% formaldehyde/0.2% glutaraldehyde for 10 min at room temperature, washed with PBS, and then incubated with freshly prepared β-Gal staining solution (Cell Signaling) titrated to pH 6.0. Staining was optimal after incubating with the β-Gal solution at 37 °C for 16–18 h. After staining, the slides were washed twice with PBS, once with absolute methanol, and then mounted with 50% glycerol/PBS. The percentage of β-galactosidase-positive cells were counted with ImageJ using the Cell Counter plugin. A total of nine images containing 100–300 cells were scored to determine the percentages of positive cells.
In assay [2] the test system is LN95 cells. The assay is described as follows: Colony formation of LN95 cells. The format is cell-based, human. The following applies: LN95, ATRA 5 or 10 µM, EPI-002 25 µM, treated 24 hours then re-plated. Here is the method: page 5: Supplementary Figure 5 a b […] (a) Representative images of colonies from LN95 cells after […] EPI-002. After treating with compounds for 24 hours, the media was removed, and 500 -1,000 cells were re-plated in 6-well plates. Colonies were fixed with 4% paraformaldehyde, stained with a 0.1% crystal violet solution, and then imaged. […]

Assay [3] relates to LN95 cells. Kind of assay: Cell cycle analysis by flow cytometry, LN95. The following applies: LN95, ATRA 5 and 10 μM, EPI-002 25 μM, 24 or 48 h. For orientation: A flow cytometer gives signals particle by particle.
Protocol: After treatments, the cells were labeled with BrdU (10 μM) for 2 h and then trypsinized, washed, and fixed in 70% EtOH/PBS at −20 °C. Approximately 2.5–5.0 × 10^5 of fixed cells were labeled with fluorescein (FITC)-conjugated anti-BrdU antibody (B44; BD Biosciences) and the DNA content was stained with 7-AAD (Sigma). The data were collected with a BD FACSCalibur flow cytometer (BD Biosciences). FITC and 7-AAD fluorescence were detected in the FL1 and FL3 channels, respectively, using CellQuest Pro and analyzed by FlowJo V10 software (Ashland, Oregon). Pre-gating was performed on all samples by plotting FL3-W × FL3-H to exclude doublets from the analysis.
A further assay concerns LN95-D3 xenografts. Kind of assay: Growth of LN95-D3 CRPC xenografts in castrated male NSG mice. It counts as in vivo. The following applies: for Tumor volume, individual animals (Fig. 7b): ATRA 5mg, in mm³ (unit assumed).
Another assay has as its system LNCaP cells. The assay is described as follows: Senescence-associated β-galactosidase staining, LNCaP. It counts as cell-based, human. The following applies: ATRA 10 µM, 3 days. The source says:
Supplementary Figure 6. […] ( a)
Staining of senescence-associated β-galactosidase (SA β-gal) activity in cell lines treated with vehicle
Original magnification ×100.
percentage of β-gal positive cells as means ± s.e.m. from 3 independent experiments, where at least
1,000 cells were scored for each group. (c) Representative Western blot showing the indicated cell […]

The target of assay [4] is T1, full-length AR (Homo sapiens, UniProt P10275, T878A).
T1 construct: Transcriptional activity of full-length AR was assessed in LNCaP cells; endogenous in cells; host or cells: LNCaP
T1 sequence (P10275 1-920 T878A): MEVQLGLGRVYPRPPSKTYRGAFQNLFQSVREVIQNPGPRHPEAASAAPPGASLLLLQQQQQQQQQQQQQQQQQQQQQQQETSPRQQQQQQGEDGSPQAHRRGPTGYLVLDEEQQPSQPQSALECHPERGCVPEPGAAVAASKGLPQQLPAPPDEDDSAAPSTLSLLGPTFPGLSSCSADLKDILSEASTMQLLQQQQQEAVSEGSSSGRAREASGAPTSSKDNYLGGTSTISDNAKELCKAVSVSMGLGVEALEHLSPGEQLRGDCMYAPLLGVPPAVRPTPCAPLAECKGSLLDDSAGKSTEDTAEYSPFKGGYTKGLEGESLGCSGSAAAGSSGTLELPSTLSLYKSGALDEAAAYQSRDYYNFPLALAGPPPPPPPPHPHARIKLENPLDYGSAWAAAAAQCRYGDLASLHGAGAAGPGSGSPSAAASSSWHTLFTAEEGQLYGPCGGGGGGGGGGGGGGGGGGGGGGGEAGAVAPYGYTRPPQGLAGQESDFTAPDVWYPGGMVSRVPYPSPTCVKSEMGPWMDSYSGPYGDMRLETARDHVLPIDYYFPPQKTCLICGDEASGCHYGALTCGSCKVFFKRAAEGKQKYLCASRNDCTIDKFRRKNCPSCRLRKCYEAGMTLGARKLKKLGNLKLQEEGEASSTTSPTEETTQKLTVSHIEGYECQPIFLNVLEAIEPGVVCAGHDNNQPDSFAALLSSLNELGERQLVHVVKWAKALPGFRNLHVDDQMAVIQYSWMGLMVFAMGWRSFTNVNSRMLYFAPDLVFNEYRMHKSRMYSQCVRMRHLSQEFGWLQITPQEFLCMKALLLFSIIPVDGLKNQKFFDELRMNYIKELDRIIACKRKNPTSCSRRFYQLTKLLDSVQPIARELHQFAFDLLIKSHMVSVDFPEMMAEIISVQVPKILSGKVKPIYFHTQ
Kind of assay: Probasin (PB)-luciferase AR-driven reporter assay in LNCaP cells. To be noted: 24 h, R1881 1 nM. It counts as cell-based.

For assay [5], the target named is T1, full-length AR. Kind of assay: PSA(6.1 kb)-luciferase AR-driven reporter assay in LNCaP cells. It counts as cell-based. To be noted: LNCaP, R1881 1 nM, 24 h; read-out: IC50, androgen-induced PSA(6.1 kb)-luciferase activity. For orientation: Reporter assays use an easily measured gene product as a stand-in for the process of interest.
The target in assay [6] is T2, human AR NTD (AR1–558) fused to Gal4DBD (Gal4-ARN) (Homo sapiens, UniProt P10275).
T2 construct: construct encoding the human AR1–558 of the NTD fused to a Gal4DBD (Gal4-ARN); expressed in transfected cells; host or cells: LNCaP
T2 sequence (P10275 1-558): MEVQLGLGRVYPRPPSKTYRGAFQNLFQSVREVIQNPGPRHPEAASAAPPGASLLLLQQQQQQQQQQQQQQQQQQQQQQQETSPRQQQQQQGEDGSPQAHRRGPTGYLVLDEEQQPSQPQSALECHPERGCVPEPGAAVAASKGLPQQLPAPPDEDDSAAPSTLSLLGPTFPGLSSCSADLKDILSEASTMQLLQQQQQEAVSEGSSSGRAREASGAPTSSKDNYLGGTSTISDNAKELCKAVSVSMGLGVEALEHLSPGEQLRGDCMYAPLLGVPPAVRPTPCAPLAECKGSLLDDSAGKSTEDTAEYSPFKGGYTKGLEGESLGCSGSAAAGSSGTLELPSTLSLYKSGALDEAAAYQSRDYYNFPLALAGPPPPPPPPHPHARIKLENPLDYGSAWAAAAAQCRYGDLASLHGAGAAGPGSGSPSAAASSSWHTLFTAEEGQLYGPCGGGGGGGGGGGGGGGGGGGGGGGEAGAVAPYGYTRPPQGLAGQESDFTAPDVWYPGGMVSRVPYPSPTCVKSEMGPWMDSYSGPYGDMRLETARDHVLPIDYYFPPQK
Kind of assay: AR NTD transactivation assay (Gal4-ARN) in LNCaP cells. The following applies: EPI-002 25 μM, juglone 20 μM, ATRA 10 μM, 24 h. It counts as cell-based. The source says:
The remaining putative Pin1-binding sites are within the intrinsically disordered AR NTD that contains transcription activation units, Tau-1 and Tau-5, to mediate androgen-dependent and androgen-independent transactivation, respectively[5],[30]. The loss of AR-LBD shifts the location of transcriptional activity from Tau-1 with androgen, to Tau-5 in the absence of LBD[30].
Error bars show the mean ± s.e.m. *P < 0.05, **P < 0.01, ***P < 0.001; ns not significant.

pIC50: −log10 of the molar value. Values joined by “and” are separate entries in the source; they are usually repeats but may differ in a detail not shown here. Identical values can stand only once.

As to `CC1=C(/C=C/C(C)=C/C=C/C(C)=C/C(=O)O)C(C)(C)CCC1` [ATRA, all-trans retinoic acid], the “effect on percentage of SA β-gal-positive cells” value is “significantly increased the percentage of SA β-gal-positive cells for LNCaP and LN95 cells” in the assay with LN95 cells [1] (LN95, ATRA 10 µM); “significantly increased the percentage of SA β-gal-positive cells for LNCaP and LN95 cells” with LNCaP cells. Moreover, the “SA β-gal-positive cells” value in the assay with LN95 cells [1] (LN95, ATRA 10 μM, EPI-002 25 μM) is recorded as 37%. The “effect on colony formation” value with LN95 cells [2] is listed as “inhibited the ability of LN95 cells to form colonies in a dose-dependent manner”. The “effect on cell cycle / S phase population” value in the assay on LN95 cells [3] is “reduced the S phase population in a dose- and time-dependent manner”. The “tumor growth after 21 days of treatment” value in the assay on LN95-D3 xenografts (castrated mice, ATRA 5 mg 21-day release pellet, EPI-7170 30 mg/kg daily oral, relative to vehicle/placebo-control) is on record as “significantly reduced”. In the assay on LN95-D3 xenografts (mice bearing ATRA slow-release pellets compared to placebo), the “growth of LN95-D3 tumors, pilot study” value was “markedly reduced”. Further, the “Tumor volume, individual animals (Fig. 7b)” value was 24.32 and 14.61 and 31.83 and 56.34 and 20.55 and 20.28 and 50.07 and 32.48 in the assay with LN95-D3 xenografts (treatment duration 0 days); 55.84 and 24.48 and 48.26 and 128.17 and 47.08 and 28.39 and 67.63 and 51.78 with LN95-D3 xenografts (treatment duration 3 days); 83.34 and 43.04 and 71.44 and 190.56 and 74.31 and 35.31 and 102.14 and 93.49 in the assay with LN95-D3 xenografts (treatment duration 6 days); 133.91 and 53.07 and 85.22 and 295.56 and 122.11 and 47.93 and 142.91 and 132.75 with LN95-D3 xenografts (treatment duration 9 days); 206.68 and 57.46 and 89.96 and 435.8 and 154.08 and 63.14 and 159.59 and 153.66 with LN95-D3 xenografts (treatment duration 12 days); 291.35 and 84.16 and 118.21 and 658.17 and 325.4 and 102.18 and 255.62 and 266.01 in the assay with LN95-D3 xenografts (treatment duration 15 days). The “Tumor volume, individual animals (Fig. 7b)” value with LN95-D3 xenografts (treatment duration 18 days) was 379.83 and 117.24 and 202.18 and 871.57 and 503.37 and 170.47 and 377.34 and 331.83; in the assay on LN95-D3 xenografts (treatment duration 21 days), 564.91 and 139.55 and 232.06 and 1102.95 and 649.08 and 196.67 and 421.71 and 345.48.
Turning to `O=C1C=CC(=O)c2c(O)cccc21` [juglone], on full-length AR [4] (inhibitor 10 μM, read-out: PB-luciferase activity normalized to the induction by R1881 (=100) (Fig. 2b)), the remaining activity at 10 µM is 22.5%. For the same compound, the pIC50 at full-length AR [4] (read-out: IC50, androgen-induced PB-luciferase activity) is 5.19; on full-length AR [5] it was 4.96. Moreover, in assay [6] (IL-6 50 ng/mL), the “effect on IL-6-induced transactivation of AR NTD (Gal4-ARN)” value is recorded as “only inhibited IL-6-induced transactivation”. For the same compound, in assay [6] (forskolin 25 μM), the “effect on forskolin-induced transactivation of AR NTD (Gal4-ARN)” value is “only inhibited IL-6-induced transactivation”.
